Measurements reported in EPA's ToxValDB 9.5.
Values joined by “and” are separate entries in the source; they are usually repeats but may differ in a detail not shown here. Equal entries are not always repeated.

Test system: Rattus norvegicus
Conditions: subchronic, duration: 90 days, oral, gavage
[1] = F, Crl:CD(SD), General Toxicity: Whole Body: Body Weight Change + General Toxicity: Whole Body: Clinical Observations + General Toxicity: Whole Body: …
[2] = F, Crl:CD(SD), Hematologic: Blood: Activated Partial Thromboplastin Time (APTT) + Hematologic: Blood: Hematocrit (HCT) + Hematologic: Blood: Hemoglobin (…
[3] = F, Crl:CD(SD), Kidney: Kidney Weight, Absolute + Liver: Liver Histopathology + Liver: Liver Weight, Absolute + Renal: Urinalysis, Unspecified
[4] = F, Crl:CD(SD), Other Systems: Eye: Ophthalmology + Other Systems: Nasal Cavity: Nasal Cavity/Tubinates Inflammation, Chronic, Focal/Multifocal + Other …
[5] = F, Crl:CD(SD), Pancreas: Pancreas Histopathology
[6] = F, Sprague-Dawley, Hematologic: Blood: Activated Partial Thromboplastin Time (APTT) + Hematologic: Blood: Hematocrit (HCT) + Hematologic: Blood: Hemoglobin (…
[7] = M, Crl:CD(SD), Blood: Activated Partial Thromboplastin Time (APTT) + Blood: Albumin/Globulin (A/G) Ratio + Blood: Fluoride (Plasma) + Blood: Hematocrit (…
[8] = M, Crl:CD(SD), Blood: Activated Partial Thromboplastin Time (APTT) + Blood: Hematocrit (HCT) + Blood: Hemoglobin (HGB) + Blood: Red Blood Cell (RBC) + …
[9] = M, Crl:CD(SD), Blood: Fluoride (Plasma), Recovery + Blood: Hematocrit (HCT) + Blood: Hemoglobin (HGB) + Liver: Liver, Biliary Hyperplasia + Liver: Liver, …
[10] = M, Crl:CD(SD), Blood: Inorganic Phosphorous (PHOS) + Blood: Potassium (K), Blood + Kidney: Blood Urea Nitrogen (BUN), Blood + Kidney: Kidney Weight, …
[11] = M, Crl:CD(SD), Blood: Inorganic Phosphorous (PHOS), Blood + Blood: Potassium (K), Blood + Epididymis: Epididymis Weight, Relative + Kidney: Blood Urea …
[12] = M, Crl:CD(SD), Blood: Total Protein (TP), Blood + Kidney: Kidney Histopathology + Kidney: Kidney Weight, Absolute + Liver: Total Bilirubin (TBILI), Blood…
[13] = M, Crl:CD(SD), General Toxicity: Whole Body: Body Weight Change + General Toxicity: Whole Body: Clinical Observations + General Toxicity: Whole Body: …
[14] = M, Crl:CD(SD), Hematologic: Blood: Activated Partial Thromboplastin Time (APTT) + Hematologic: Blood: Hematocrit (HCT) + Hematologic: Blood: Hemoglobin (…
[15] = M, Sprague-Dawley, Hematologic: Blood: Activated Partial Thromboplastin Time (APTT) + Hematologic: Blood: Hematocrit (HCT) + Hematologic: Blood: Hemoglobin (…

OCCC(F)(F)C(F)(F)C(F)(F)C(F)(F)C(F)(F)C(F)(F)F [2-(Perfluorohexyl)ethanol]
LOAEL [1]: 125 mg/kg-day
NOAEL [1]: 25 mg/kg-day
LOAEL [2]: 25 mg/kg-day
NOAEL [2]: 5 mg/kg-day
LEL [3]: 25 mg/kg-day
NEL [3]: 5 mg/kg-day
LOAEL [4]: 250 mg/kg-day
NOAEL [4]: 125 mg/kg-day
LEL [5]: 250 mg/kg-day
NEL [5]: 125 mg/kg-day
LOAEL [6]: 25 mg/kg-day
NOAEL [6]: 5 mg/kg-day
NOAEL (F, Sprague-Dawley, Other Systems: Tooth: Tooth Discoloration + Other Systems: Tooth: Tooth Discoloration, Recovery + Other Systems: Tooth: Tooth Findings, …): 250 mg/kg-day
NEL (M, Crl:CD(SD), Adrenal: Adrenal Gland Weight, Absolute + Adrenal: Adrenal Gland Weight, Relative + Blood: Basophils + Blood: Calcium (CA), Blood + Blood: …): 250 mg/kg-day
LEL [7]: 25 mg/kg-day
NEL [7]: 5 mg/kg-day
LEL [8]: 25 mg/kg-day
NEL [8]: 5 mg/kg-day
LEL [9]: 250 mg/kg-day
NEL [9]: 125 mg/kg-day
LEL [10]: 125 mg/kg-day
NEL [10]: 25 mg/kg-day
LEL [11]: 125 mg/kg-day
NEL [11]: 25 mg/kg-day
LEL [12]: 250 mg/kg-day
NEL [12]: 125 mg/kg-day
LOAEL (M, Crl:CD(SD), Cardiovascular: Heart: Heart Weight, Absolute + Cardiovascular: Heart: Heart Weight, Relative + Endocrine: Adrenal: Adrenal Gland Weight, …): 25 mg/kg-day
LOAEL [13]: 125 mg/kg-day
NOAEL [13]: 25 mg/kg-day
LOAEL [14]: 25 mg/kg-day
NOAEL [14]: 5 mg/kg-day
LOAEL (M, Crl:CD(SD), Immune: Blood: Basophils + Immune: Blood: Eosinophils + Immune: Blood: Lymphocyte + Immune: Blood: Monocytes + Immune: Blood: Neutrophils + …): 250 mg/kg-day
LOAEL (M, Crl:CD(SD), Other Systems: Eye: Ophthalmology + Other Systems: Nasal Cavity: Nasal Cavity/Tubinates Inflammation, Chronic, Focal/Multifocal + Other …): 125 mg/kg-day and 250 mg/kg-day
LOAEL (M, Crl:CD(SD), Reproductive: Epididymis: Epididymis Weight, Absolute + Reproductive: Epididymis: Epididymis Weight, Relative + Reproductive: Testis: Testis…): 5 mg/kg-day
LOAEL [15]: 25 mg/kg-day
NOAEL [15]: 5 mg/kg-day
NOAEL (M, Sprague-Dawley, Other Systems: Blood: Potassium (K) + Other Systems: Tooth: Tooth Discoloration + Other Systems: Tooth: Tooth Discoloration, Recovery + …): 250 mg/kg-day
